Data on 21 compounds can be found in patent US9540392B2, “Thienopyrimidines” (BAYER PHARMA AKTIENGESELLSCHAFT, priority 2012, dated 2017).

The structures appear in SMILES notation.

In this test the target is T1, human full-length MKNK1 (Homo sapiens, UniProt Q9BUB5, T385D).
T1 construct: GST (N); purchased Carna Biosciences 02-145; host or cells: insect cells (baculovirus expression system)
T1 sequence (Q9BUB5 1-424 isoform Q9BUB5-2 T344D): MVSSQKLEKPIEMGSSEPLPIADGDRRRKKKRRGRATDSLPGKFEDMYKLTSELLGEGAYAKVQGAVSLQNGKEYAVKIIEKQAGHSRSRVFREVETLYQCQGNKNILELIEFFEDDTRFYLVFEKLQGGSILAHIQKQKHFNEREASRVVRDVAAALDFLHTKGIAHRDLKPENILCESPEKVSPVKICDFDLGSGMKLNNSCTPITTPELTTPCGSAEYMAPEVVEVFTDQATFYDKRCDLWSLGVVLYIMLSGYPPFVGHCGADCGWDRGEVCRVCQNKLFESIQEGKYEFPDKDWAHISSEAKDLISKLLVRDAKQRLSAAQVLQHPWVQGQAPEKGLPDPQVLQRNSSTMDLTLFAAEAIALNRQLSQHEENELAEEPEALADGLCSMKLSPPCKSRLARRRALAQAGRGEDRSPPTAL
Put plainly: MKNK1 kinase high ATP assay (TR-FRET). It is filed as biochemical. Conditions: 2 mM ATP, after preincubation with MKNK1; read-out: MKNK1 IC50 (MKNK1 high ATP). Put shortly:
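Compound was preincubated 15 min at 22° C. with MKNK1 in 50 mM HEPES pH 7.5, 5 mM MgCl2, 1.0 mM DTT, then the reaction ran 30 min at 22° C. with 2 mM ATP and 0.06 μM biotinylated peptide (final).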
Background: Time-resolved FRET reads energy transfer from a long-lived donor to a nearby acceptor.
For orientation: IC50 means the point on the concentration scale where inhibition reaches its midpoint. In the case of `COc1cc2[nH]ncc2cc1Nc1ncnc2sc3c(c12)CCC(C(=O)N1CC2(CCS2(=O)=O)C1)C3` (racemic) [Example 264, (RS)-(1,1-Dioxido-1-thia-6-azaspiro[3.3]hept-6-yl){4-[(6-methoxy-1H-indazol-5-yl)amino]-5,6,7,8-tetrahydro[1]benzothieno[2,3-d]pyrimidin-7-yl}methanone], the IC50 came to 2.2 nM.

As for `O=C(NCc1ccc2c(c1)OCO2)C1CCc2c(sc3ncnc(Nc4ccc5[nH]ncc5c4)c23)C1` (stereo not drawn) [Example 23, N-(1,3-Benzodioxol-5-ylmethyl)-4-(1H-indazol-5-ylamino)-5,6,7,8-tetrahydro[1] benzothieno [2,3-d]pyrimidine-7-carboxamide], the IC50 stood at 3 nM.

Consider `CCOC(=O)N1CCN(C(=O)C2CCc3c(sc4ncnc(Nc5ccc6[nH]ncc6c5)c34)C2)CC1` (racemic) [Example 103, (RS)-ethyl4-{[4-(1H-indazol-5-ylamino)-5,6,7,8-tetrahydro[1]benzothieno[2,3-d]pyrimidin-7-yl]carbonyl}piperazine-1-carboxylate], for which the IC50 was determined as 16.4 nM.

On to `O=C(NCCc1cccs1)C1CCc2c(sc3ncnc(Nc4ccc5[nH]ncc5c4)c23)C1` (racemic) [Example 116, (RS)-4-(1H-indazol-5-ylamino)-N-[2-(thiophen-2-yl)ethyl]-5,6,7,8-tetrahydro[1]benzothieno[2,3-d]pyrimidine-7-carboxamide], for which the IC50 was found to be 5.8 nM.

For `CC(C)Oc1cc2[nH]ncc2cc1Nc1ncnc2sc3c(c12)CCC(C(=O)N1CCCC1)C3` (racemic) [Example 221, (RS)-(4-{[6-(Propan-2-yloxy)-1H-indazol-5-yl]amino}-5,6,7,8-tetrahydro[1]benzothieno[2,3-d]pyrimidin-7-yl)(pyrrolidin-1-yl)methanone], the IC50 is 0.7 nM.

Regarding `COc1ccc(CNC(=O)C2CCc3c(sc4ncnc(Nc5ccc6[nH]ncc6c5)c34)C2)cc1` (stereo not drawn) [Example 30, 4-(1H-Indazol-5-ylamino)-N-(4-methoxybenzyl)-5,6,7,8-tetrahydro[1] benzothieno [2,3-d]pyrimidine-7-carboxamide], the IC50 came to 4 nM.

Turning to `CC1CCCN(C(=O)C2CCc3c(sc4ncnc(Nc5ccc6[nH]ncc6c5)c34)C2)C1` (racemic) [Example 104, (RS)-[4-(1H-indazol-5-ylamino)-5,6,7,8-tetrahydro[1]benzothieno[2,3-d]pyrimidin-7-yl](3-methylpiperidin-1-yl)methanone], the half-maximal inhibitory concentration (IC50) came out at 7.4 nM.

For `O=C(C1CCc2c(sc3ncnc(Nc4ccc5[nH]ncc5c4)c23)C1)N1CCCC1CO` (racemic) [Example 186, (RS)-[2-(hydroxymethyl)pyrrolidin-1-yl][4-(1H-indazol-5-ylamino)-5,6,7,8-tetrahydro[1]benzothieno[2,3-d]pyrimidin-7-yl]methanone], the IC50 is 40.6 nM.

Turning to `CNC(=O)CN1CCN(C(=O)C2CCc3c(sc4ncnc(Nc5ccc6[nH]ncc6c5)c34)C2)CC1` (racemic) [Example 164, (RS)-2-(4-{[4-(1H-indazol-5-ylamino)-5,6,7,8-tetrahydro[1]benzothieno[2,3-d]pyrimidin-7-yl]carbonyl}piperazin-1-yl)-N-methylacetamide], the IC50 came out at 22.5 nM.

Consider `CN(C)c1ccc(CNC(=O)C2CCc3c(sc4ncnc(Nc5ccc6[nH]ncc6c5)c34)C2)cc1` (stereo not drawn) [Example 34, N-[4-(Dimethylamino)benzyl]-4-(1H-indazol-5-ylamino)-5,6,7,8-tetrahydro[1] benzothieno [2,3-d]pyrimidine-7-carboxamide], for which the IC50 was 5 nM.

Consider `O=C(C1CCc2c(sc3ncnc(Nc4ccc5[nH]ncc5c4)c23)C1)N1CCN(CC2CC2)CC1` (racemic) [Example 191, (RS)-[4-(cyclopropylmethyl)piperazin-1-yl][4-(1H-indazol-5-ylamino)-5,6,7,8-tetrahydro[1]benzothieno[2,3-d]pyrimidin-7-yl]methanone], for which the IC50 came to 7.3 nM.

Turning to `O=C(C1CCc2c(sc3ncnc(Nc4ccc5[nH]ncc5c4)c23)C1)N1CCCC(O)C1` (racemic) [Example 108, (RS)-(3-hydroxypiperidin-1-yl)[4-(1H-indazol-5-ylamino)-5,6,7,8-tetrahydro[1]benzothieno[2,3-d]pyrimidin-7-yl]methanone], the IC50 turned out to be 12 nM.

Regarding `CC(C)Oc1cc2[nH]ncc2cc1Nc1ncnc2sc3c(c12)CCC(C(=O)N1CCC2(CC2)C1)C3` (racemic) [Example 261, (RS)-5-Azaspiro[2.4]hept-5-yl{4-[(6-isopropoxy-1H-indazol-5-yl)amino]-5,6,7,8-tetrahydro[1]benzothieno[2,3-d]pyrimidin-7-yl}methanone], the IC50 is 2.3 nM.

As for `COc1cc2[nH]ncc2cc1Nc1ncnc2sc3c(c12)CCC(C(=O)N1C[C@@H](O)[C@H](O)C1)C3` (mixture of isomers) [Example 243, [(3R,4R)-3,4-Dihydroxypyrrolidin-1-yl]{(7RS)-4-[(6-methoxy-1H-indazol-5-yl)amino]-5,6,7,8-tetrahydro[1]benzothieno[2,3-d]pyrimidin-7-yl}methanone], the IC50 amounted to 0.3 nM.

For `O=C(NCCc1ccncc1)C1CCc2c(sc3ncnc(Nc4ccc5[nH]ncc5c4)c23)C1` (stereo not drawn) [Example 36, 4-(1H-Indazol-5-ylamino)-N-[2-(pyridin-4-yl)ethyl]-5,6,7,8-tetrahydro[1] benzothieno [2,3-d]pyrimidine-7-carboxamide], the IC50 is 6 nM.

Consider `CC(C)OC(=O)C1CCc2c(sc3ncnc(Nc4ccc5[nH]ncc5c4)c23)C1` (racemic) [Example 74, (RS)-Propan-2-yl 4-(1H-indazol-5-ylamino)-5,6,7,8-tetrahydro[1]benzothieno[2,3-d]pyrimidine-7-carboxylate], for which the IC50 was 27.6 nM.

`CCOC(=O)C1CCc2c(sc3ncnc(Nc4cc5cn[nH]c5cc4Cl)c23)C1` (stereo not drawn) [Example 53, Ethyl 4-[(6-chloro-1H-indazol-5-yl)amino]-5,6,7,8-tetrahydro[1]benzothieno[2,3-d]pyrimidine-7-carboxylate]: the half-maximal inhibitory concentration (IC50) was 9 nM.

Take `CN(Cc1ccccc1)C(=O)C1CCc2c(sc3ncnc(Nc4ccc5[nH]ncc5c4)c23)C1` (racemic) [Example 101, (RS)-N-benzyl-4-(1H-indazol-5-ylamino)-N-methyl-5,6,7,8-tetrahydro[1]benzothieno[2,3-d]pyrimidine-7-carboxamide]: the IC50 was 4.7 nM.

Take `CC1CCN(C(=O)C2CCc3c(sc4ncnc(Nc5ccc6[nH]ncc6c5)c34)C2)CC1` (racemic) [Example 105, (RS)-[4-(1H-indazol-5-ylamino)-5,6,7,8-tetrahydro[1]benzothieno[2,3-d]pyrimidin-7-yl](4-methylpiperidin-1-yl)methanone]: the IC50 came out at 16.8 nM.

Turning to `COCC1CCCN1C(=O)C1CCc2c(sc3ncnc(Nc4ccc5[nH]ncc5c4)c23)C1` (racemic) [Example 204, (RS)-[4-(1H-indazol-5-ylamino)-5,6,7,8-tetrahydro[1]benzothieno[2,3-d]pyrimidin-7-yl][2-(methoxymethyl)pyrrolidin-1-yl]methanone], the IC50 is 7.3 nM.

With `N#Cc1ccccc1N1CCN(C(=O)C2CCc3c(sc4ncnc(Nc5ccc6[nH]ncc6c5)c34)C2)CC1` (racemic) [Example 115, (RS)-2-(4-{[4-(1H-indazol-5-ylamino)-5,6,7,8-tetrahydro[1]benzothieno[2,3-d]pyrimidin-7-yl]carbonyl}piperazin-1-yl)benzonitrile], the half-inhibitory concentration (IC50) is 15.3 nM.
